This is an account of results in patent US4163780A (Kirin-Seagram Limited, priority 1977, dated 1979).

The subject of this test is influenza A2 -Kumamoto/Y5 (H2 N2) virus. The class given is in vivo, influenza virus; DDI mice. To be noted: Virazole 50 mg/kg, intraperitoneal, 15 times.

Turning to `NC(=O)c1ncn([C@@H]2O[C@H](CO)[C@@H](O)[C@H]2O)n1` [Virazole], the “Average of survival days” value was more than 16.9 days and the Survival percentage is 30%.
